According to paper PMC13286569 (eLife, 2026):
pEC50: −log10 of the molar value.

Target: T1, DcDop2 (Diaphorina citri, UniProt A0A3Q0INR4)
T1 construct: gene LOC103507230; full ORF (2049 nt, 682 residues) in pcDNA3.1, transiently expressed in CHO-WTA11 cells (Galpha16 and aequorin)
T1 sequence (A0A3Q0INR4 1-682): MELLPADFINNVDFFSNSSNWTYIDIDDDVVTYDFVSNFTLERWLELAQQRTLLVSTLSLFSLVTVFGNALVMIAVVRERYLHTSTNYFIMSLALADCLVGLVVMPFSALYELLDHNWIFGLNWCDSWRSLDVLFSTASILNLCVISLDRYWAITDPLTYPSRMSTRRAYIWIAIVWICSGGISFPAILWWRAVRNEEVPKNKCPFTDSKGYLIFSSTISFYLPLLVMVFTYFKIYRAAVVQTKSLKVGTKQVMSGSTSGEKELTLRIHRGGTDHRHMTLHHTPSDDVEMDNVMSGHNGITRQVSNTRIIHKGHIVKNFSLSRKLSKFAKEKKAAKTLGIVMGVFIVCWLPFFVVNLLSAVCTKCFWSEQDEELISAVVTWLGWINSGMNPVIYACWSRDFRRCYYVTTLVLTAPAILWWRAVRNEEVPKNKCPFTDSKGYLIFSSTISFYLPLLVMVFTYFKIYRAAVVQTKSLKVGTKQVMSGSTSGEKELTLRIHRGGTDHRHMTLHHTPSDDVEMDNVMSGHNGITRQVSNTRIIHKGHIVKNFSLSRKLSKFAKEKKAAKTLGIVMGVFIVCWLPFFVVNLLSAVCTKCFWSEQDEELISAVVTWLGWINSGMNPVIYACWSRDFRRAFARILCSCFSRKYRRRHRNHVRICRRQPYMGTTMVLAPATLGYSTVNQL
Assay: aequorin calcium mobilization luminescence in transfected CHO-WTA11 cells
Assay type: cell-based

NCCc1ccc(O)c(O)c1 [DA, dopamine]
pEC50: 8.39
